# Experimental data taken from paper PMC8518114, “Safety, tolerability and pharmacokinetics of emodepside, a potential novel treatment for onchocerciasis (river blindness), in healthy male subjects” (British Journal of Clinical Pharmacology, 2021).
# System: healthy male subjects
# Assay: Safety: treatment-emergent adverse events, SAD study
# Assay type: in vivo, human
# Procedure: Safety was assessed by monitoring adverse events (AEs) throughout the studies that were coded using the standard Medical Dictionary for Regulatory Activities (MedDRA) dictionary (versions 19.0 [SAD part 1], 20.0 [SAD part 2] and 21.1 [MAD]). Other safety monitoring included 12‐lead electrocardiography recordings, measurement of vital signs (systolic and diastolic blood pressure and heart rate), physical and neurological (Hamilton depression rating scale[17] and Beck depression inventory‐II fastscreen[18] [SAD only], mental status examination, cranial nerves assessment and motor system examination, sensation to light touch, coordination/cerebellar function assessment, Romberg's test, gait test, daytime sleepiness assessment [SAD and MAD studies]) examinations, haematology, biochemistry and urinalysis. To minimise risks in the SAD and MAD studies, subjects were dosed sequentially using sentinels in each cohort (1 IP, 1 placebo) as per European Medicines Agency guidelines.[19] If the previous dose was well tolerated, with no safety concerns, dose escalation was decided by the Safety Review Group after reviewing safety and PK data from all available cohorts. Moreover, treatment with the highest dose in the SAD study was repeated (cohort 10) for regular ophthalmological evaluations (assessments available as supplementary information) to better characterise visual AEs observed in the SAD study. Regular ophthalmological assessments were also performed in the MAD study.
# [1] = SAD Part 2, 10 mg LSF (fed) n = 6
# [2] = SAD Part 2, 40 mg LSF (fasting) n = 6
compound,measurement,setting,value
CC(C)C[C@H]1C(=O)O[C@H](Cc2ccc(N3CCOCC3)cc2)C(=O)N(C)[C@@H](CC(C)C)C(=O)O[C@H](C)C(=O)N(C)[C@@H](CC(C)C)C(=O)O[C@H](Cc2ccc(N3CCOCC3)cc2)C(=O)N(C)[C@@H](CC(C)C)C(=O)O[C@H](C)C(=O)N1C [emodepside],Any TEAE,"SAD Part 1, 0.1 mg LSF n = 1",1 (100) n (%)
same,TEAE: Eye disorders,"SAD Part 1, 0.1 mg LSF n = 1",0 n (%)
same,TEAE: Gastrointestinal disorders,"SAD Part 1, 0.1 mg LSF n = 1",0 n (%)
same,TEAE: General disorders and administration site disorders,"SAD Part 1, 0.1 mg LSF n = 1",0 n (%)
same,TEAE: Infections and infestations,"SAD Part 1, 0.1 mg LSF n = 1",1 (100) n (%)
same,"TEAE: Injury, poisoning and procedural complications","SAD Part 1, 0.1 mg LSF n = 1",0 n (%)
same,TEAE: Musculoskeletal and connective tissue disorders,"SAD Part 1, 0.1 mg LSF n = 1",0 n (%)
same,TEAE: Nervous system disorders,"SAD Part 1, 0.1 mg LSF n = 1",0 n (%)
same,TEAE: Psychiatric disorders,"SAD Part 1, 0.1 mg LSF n = 1",0 n (%)
same,"TEAE: Respiratory, thoracic and mediastinal disorders","SAD Part 1, 0.1 mg LSF n = 1",0 n (%)
same,Any TEAE,"SAD Part 1, 1 mg LSF n = 5",3 (60.0) n (%)
same,TEAE: Eye disorders,"SAD Part 1, 1 mg LSF n = 5",0 n (%)
same,TEAE: Gastrointestinal disorders,"SAD Part 1, 1 mg LSF n = 5",0 n (%)
same,TEAE: General disorders and administration site disorders,"SAD Part 1, 1 mg LSF n = 5",0 n (%)
same,TEAE: Infections and infestations,"SAD Part 1, 1 mg LSF n = 5",0 n (%)
same,"TEAE: Injury, poisoning and procedural complications","SAD Part 1, 1 mg LSF n = 5",0 n (%)
same,TEAE: Musculoskeletal and connective tissue disorders,"SAD Part 1, 1 mg LSF n = 5",1 (20.0) n (%)
same,TEAE: Nervous system disorders,"SAD Part 1, 1 mg LSF n = 5",2 (40.0) n (%)
same,TEAE: Psychiatric disorders,"SAD Part 1, 1 mg LSF n = 5",0 n (%)
same,"TEAE: Respiratory, thoracic and mediastinal disorders","SAD Part 1, 1 mg LSF n = 5",0 n (%)
same,Any TEAE,"SAD Part 1, 2.5 mg LSF n = 6",0 n (%)
same,TEAE: Eye disorders,"SAD Part 1, 2.5 mg LSF n = 6",0 n (%)
same,TEAE: Gastrointestinal disorders,"SAD Part 1, 2.5 mg LSF n = 6",0 n (%)
same,TEAE: General disorders and administration site disorders,"SAD Part 1, 2.5 mg LSF n = 6",0 n (%)
same,TEAE: Infections and infestations,"SAD Part 1, 2.5 mg LSF n = 6",0 n (%)
same,"TEAE: Injury, poisoning and procedural complications","SAD Part 1, 2.5 mg LSF n = 6",0 n (%)
same,TEAE: Musculoskeletal and connective tissue disorders,"SAD Part 1, 2.5 mg LSF n = 6",0 n (%)
same,TEAE: Nervous system disorders,"SAD Part 1, 2.5 mg LSF n = 6",0 n (%)
same,TEAE: Psychiatric disorders,"SAD Part 1, 2.5 mg LSF n = 6",0 n (%)
same,"TEAE: Respiratory, thoracic and mediastinal disorders","SAD Part 1, 2.5 mg LSF n = 6",0 n (%)
same,Any TEAE,"SAD Part 1, 5 mg IRT n = 5",3 (60.0) n (%)
same,TEAE: Eye disorders,"SAD Part 1, 5 mg IRT n = 5",1 (20.0) n (%)
same,TEAE: Gastrointestinal disorders,"SAD Part 1, 5 mg IRT n = 5",0 n (%)
same,TEAE: General disorders and administration site disorders,"SAD Part 1, 5 mg IRT n = 5",0 n (%)
same,TEAE: Infections and infestations,"SAD Part 1, 5 mg IRT n = 5",0 n (%)
same,"TEAE: Injury, poisoning and procedural complications","SAD Part 1, 5 mg IRT n = 5",0 n (%)
same,TEAE: Musculoskeletal and connective tissue disorders,"SAD Part 1, 5 mg IRT n = 5",1 (20.0) n (%)
same,TEAE: Nervous system disorders,"SAD Part 1, 5 mg IRT n = 5",1 (20.0) n (%)
same,TEAE: Psychiatric disorders,"SAD Part 1, 5 mg IRT n = 5",1 (20.0) n (%)
same,"TEAE: Respiratory, thoracic and mediastinal disorders","SAD Part 1, 5 mg IRT n = 5",0 n (%)
same,Any TEAE,"SAD Part 1, 5 mg LSF n = 6",3 (50.0) n (%)
same,TEAE: Eye disorders,"SAD Part 1, 5 mg LSF n = 6",0 n (%)
same,TEAE: Gastrointestinal disorders,"SAD Part 1, 5 mg LSF n = 6",1 (16.7) n (%)
same,TEAE: General disorders and administration site disorders,"SAD Part 1, 5 mg LSF n = 6",2 (33.3) n (%)
same,TEAE: Infections and infestations,"SAD Part 1, 5 mg LSF n = 6",1 (16.7) n (%)
same,"TEAE: Injury, poisoning and procedural complications","SAD Part 1, 5 mg LSF n = 6",0 n (%)
same,TEAE: Musculoskeletal and connective tissue disorders,"SAD Part 1, 5 mg LSF n = 6",1 (16.7) n (%)
same,TEAE: Nervous system disorders,"SAD Part 1, 5 mg LSF n = 6",1 (16.7) n (%)
same,TEAE: Psychiatric disorders,"SAD Part 1, 5 mg LSF n = 6",0 n (%)
same,"TEAE: Respiratory, thoracic and mediastinal disorders","SAD Part 1, 5 mg LSF n = 6",0 n (%)
same,Any TEAE,"SAD Part 1, 10 mg LSF n = 6",5 (83.3) n (%)
same,TEAE: Eye disorders,"SAD Part 1, 10 mg LSF n = 6",2 (33.3) n (%)
same,TEAE: Gastrointestinal disorders,"SAD Part 1, 10 mg LSF n = 6",0 n (%)
same,TEAE: General disorders and administration site disorders,"SAD Part 1, 10 mg LSF n = 6",0 n (%)
same,TEAE: Infections and infestations,"SAD Part 1, 10 mg LSF n = 6",1 (16.7) n (%)
same,"TEAE: Injury, poisoning and procedural complications","SAD Part 1, 10 mg LSF n = 6",0 n (%)
same,TEAE: Musculoskeletal and connective tissue disorders,"SAD Part 1, 10 mg LSF n = 6",0 n (%)
same,TEAE: Nervous system disorders,"SAD Part 1, 10 mg LSF n = 6",1 (16.7) n (%)
same,TEAE: Psychiatric disorders,"SAD Part 1, 10 mg LSF n = 6",0 n (%)
same,"TEAE: Respiratory, thoracic and mediastinal disorders","SAD Part 1, 10 mg LSF n = 6",1 (16.7) n (%)
same,Any TEAE,"SAD Part 1, 20 mg IRT n = 6",2 (33.3) n (%)
same,TEAE: Eye disorders,"SAD Part 1, 20 mg IRT n = 6",0 n (%)
same,TEAE: Gastrointestinal disorders,"SAD Part 1, 20 mg IRT n = 6",1 (16.7) n (%)
same,TEAE: General disorders and administration site disorders,"SAD Part 1, 20 mg IRT n = 6",0 n (%)
same,TEAE: Infections and infestations,"SAD Part 1, 20 mg IRT n = 6",0 n (%)
same,"TEAE: Injury, poisoning and procedural complications","SAD Part 1, 20 mg IRT n = 6",0 n (%)
same,TEAE: Musculoskeletal and connective tissue disorders,"SAD Part 1, 20 mg IRT n = 6",1 (16.7) n (%)
same,TEAE: Nervous system disorders,"SAD Part 1, 20 mg IRT n = 6",1 (16.7) n (%)
same,TEAE: Psychiatric disorders,"SAD Part 1, 20 mg IRT n = 6",0 n (%)
same,"TEAE: Respiratory, thoracic and mediastinal disorders","SAD Part 1, 20 mg IRT n = 6",1 (16.7) n (%)
same,Any TEAE,"SAD Part 1, 20 mg LSF n = 6",3 (50.0) n (%)
same,TEAE: Eye disorders,"SAD Part 1, 20 mg LSF n = 6",1 (16.7) n (%)
same,TEAE: Gastrointestinal disorders,"SAD Part 1, 20 mg LSF n = 6",0 n (%)
same,TEAE: General disorders and administration site disorders,"SAD Part 1, 20 mg LSF n = 6",0 n (%)
same,TEAE: Infections and infestations,"SAD Part 1, 20 mg LSF n = 6",1 (16.7) n (%)
same,"TEAE: Injury, poisoning and procedural complications","SAD Part 1, 20 mg LSF n = 6",1 (16.7) n (%)
same,TEAE: Musculoskeletal and connective tissue disorders,"SAD Part 1, 20 mg LSF n = 6",0 n (%)
same,TEAE: Nervous system disorders,"SAD Part 1, 20 mg LSF n = 6",1 (16.7) n (%)
same,TEAE: Psychiatric disorders,"SAD Part 1, 20 mg LSF n = 6",0 n (%)
same,"TEAE: Respiratory, thoracic and mediastinal disorders","SAD Part 1, 20 mg LSF n = 6",1 (16.7) n (%)
same,Any TEAE,"SAD Part 1, 40 mg LSF n = 6",5 (83.3) n (%)
same,TEAE: Eye disorders,"SAD Part 1, 40 mg LSF n = 6",5 (83.3) n (%)
same,TEAE: Gastrointestinal disorders,"SAD Part 1, 40 mg LSF n = 6",0 n (%)
same,TEAE: General disorders and administration site disorders,"SAD Part 1, 40 mg LSF n = 6",0 n (%)
same,TEAE: Infections and infestations,"SAD Part 1, 40 mg LSF n = 6",1 (16.7) n (%)
same,"TEAE: Injury, poisoning and procedural complications","SAD Part 1, 40 mg LSF n = 6",0 n (%)
same,TEAE: Musculoskeletal and connective tissue disorders,"SAD Part 1, 40 mg LSF n = 6",1 (16.7) n (%)
same,TEAE: Nervous system disorders,"SAD Part 1, 40 mg LSF n = 6",3 (50.0) n (%)
same,TEAE: Psychiatric disorders,"SAD Part 1, 40 mg LSF n = 6",0 n (%)
same,"TEAE: Respiratory, thoracic and mediastinal disorders","SAD Part 1, 40 mg LSF n = 6",0 n (%)
same,Any TEAE,[1],3 (50.0) n (%)
same,TEAE: Eye disorders,[1],0 n (%)
same,TEAE: Gastrointestinal disorders,[1],0 n (%)
same,TEAE: General disorders and administration site disorders,[1],0 n (%)
same,TEAE: Infections and infestations,[1],0 n (%)
same,"TEAE: Injury, poisoning and procedural complications",[1],0 n (%)
same,TEAE: Musculoskeletal and connective tissue disorders,[1],0 n (%)
same,TEAE: Nervous system disorders,[1],2 (33.3) n (%)
same,TEAE: Psychiatric disorders,[1],0 n (%)
same,"TEAE: Respiratory, thoracic and mediastinal disorders",[1],1 (16.7) n (%)
same,Any TEAE,[2],5 (83.3) n (%)
same,TEAE: Eye disorders,[2],5 (83.3) n (%)
same,TEAE: Gastrointestinal disorders,[2],3 (50.0) n (%)
same,TEAE: General disorders and administration site disorders,[2],3 (50.0) n (%)
same,TEAE: Infections and infestations,[2],0 n (%)
same,"TEAE: Injury, poisoning and procedural complications",[2],0 n (%)
same,TEAE: Musculoskeletal and connective tissue disorders,[2],1 (16.7) n (%)
same,TEAE: Nervous system disorders,[2],4 (66.7) n (%)
same,TEAE: Psychiatric disorders,[2],1 (16.7) n (%)
same,"TEAE: Respiratory, thoracic and mediastinal disorders",[2],1 (16.7) n (%)
same,Drug-related visual disorder TEAEs,"SAD, 10 mg LSF in the fasting state",2 subjects
same,Drug-related visual disorder TEAEs,"SAD, 40 mg LSF in the fasting state",5 subjects
same,Time to spontaneous resolution of drug-related visual disorder TEAEs,"SAD, all mild",≤ 24 h
same,Onset of drug-related visual disorder TEAEs post-dose,in vivo,20 to 240 min
same,"Onset of drug-related visual disorder TEAEs, most often",in vivo,1 to 2.5 h
